Results: publication PMC12508460 (Nature Communications, 2025)
Numbering of substitutions follows the chain as printed. pEC50: −log10 of the molar value.

What was measured:
WT DP1 = molecular target: T1, WT DP1 (Homo sapiens, UniProt Q13258); assay: Cyclic AMP GloSensor assay
T1 sequence (Q13258 1-359): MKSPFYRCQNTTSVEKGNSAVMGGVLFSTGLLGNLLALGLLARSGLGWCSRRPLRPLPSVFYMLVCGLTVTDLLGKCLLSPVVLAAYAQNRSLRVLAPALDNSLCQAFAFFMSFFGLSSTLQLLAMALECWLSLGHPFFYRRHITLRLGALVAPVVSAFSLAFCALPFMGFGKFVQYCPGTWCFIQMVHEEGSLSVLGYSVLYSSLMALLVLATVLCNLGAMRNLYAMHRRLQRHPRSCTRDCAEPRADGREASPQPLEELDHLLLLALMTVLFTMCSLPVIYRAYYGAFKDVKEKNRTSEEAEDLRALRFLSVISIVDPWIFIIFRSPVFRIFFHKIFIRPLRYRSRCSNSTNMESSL

DP1 R327^8.47A = molecular target: T2, DP1 R327^8.47A (Homo sapiens, UniProt Q13258, R327A); assay: ONE-GO BRET Gs protein activation assay; assay type: cell-based
T2 sequence (Q13258 1-359 R327A): T1 sequence (Q13258 1-359) with R327A

Row | Compound | pEC50 (WT DP1) | Effect on basal activity of DP1 in cAMP accumulation assays (WT DP1) | Reduction of the potency of PGD2 by the R327^8.47A mutation (DP1 R327^8.47A)
1 | Cc1cc(OC[C@@H]2CN(C)c3ccccc3O2)cc(C)c1C(=O)Nc1ccc(Cl)c(CC(=O)O)c1 [ONO2550289, (S)-2-(2-chloro-5-(2,6-dimethyl-4-((4-methyl-3,4-dihydro-2H-benzo[b][1,4]oxazin-2-yl)methoxy)benzamido)phenyl)acetic acid] | 8.96 | fully inhibit the basal activity | –
2 | Cc1cc(OC[C@@H]2CN(C)c3ccccc3O2)cc(C)c1C(=O)Nc1ccc(Cl)c(C2(C(=O)O)CC2)c1 [ONO3030297, (S)-1-(2-chloro-5-(2,6-dimethyl-4-((4-methyl-3,4-dihydro-2H-benzo[b][1,4]oxazin-2-yl)methoxy)benzamido)phenyl)cyclopropane-1-carboxylic acid] | 8.89 | fully inhibit the basal activity | –
3 | CCCCC[C@H](O)/C=C/[C@H]1C(=O)C[C@H](O)[C@@H]1C/C=C\CCCC(=O)O [PGD2, Prostaglandin D2] | 8.21 | – | over 70 fold
